These results are taken from article PMC9415638, “Discovery of novel thiazolyl-pyrazolines as dual EGFR and VEGFR-2 inhibitors endowed with in vitro antitumor activity towards non-small lung cancer” (Journal of Enzyme Inhibition and Medicinal Chemistry, 2022).

In one test the target is EGFR (Homo sapiens, UniProt P00533). Put plainly: EGFR kinase assay (PGT-coated 96-well plates). It counts as biochemical. The settings on record: read-out: IC50 (nM) ± SEM EGFR. On the procedure:
The EGFR kinase assay was carried out in 96-well plates coated with PGT (poly l-glutamic acid l-tyrosine, 4:1, Sigma Aldrich, St. Louis, MO) as previously described. IC50 values were calculated using GraphPad Prism 5. Each experiment was carried out at least three times. The VEGFR-2 kinase assay was carried out in 96-well streptavidin coated plate using recombinant human VEGFR-2/KDR ELISA kit according to manufacturer’s instructions.

For test [1], the system named is BT-549 breast cancer cells. Put plainly: Anti-proliferative MTT assay. The format is cell-based. The following applies: Homo sapiens, 24 h, read-out: % Growth inhibition ± SEM BT-549. A digest of the protocol:
(§1)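 MTT read-out after 24 h compound treatment of cells seeded overnight at 1 × 10^4 cells/well, then 4 h MTT (2 mg/mL in PBS) at 37 °C. Formazan dissolved in DMSO, OD at 570 nm. IC50 from ≥3 independent experiments; preliminary screen at single 10 µM dose gave %GI.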

The subject of test [2] is HCC70 breast cancer cells. Put plainly: Anti-proliferative MTT assay. It counts as cell-based. The settings on record: Homo sapiens, 24 h, read-out: % Growth inhibition ± SEM HCC70. A digest of the protocol: as §1
In general terms: Tetrazolium assays rely on reduction of a dye to a coloured formazan, in cell work by metabolically active cells.

The subject of test [3] is HCT116 colon cancer cells. Put plainly: Anti-proliferative MTT assay. The following applies: Homo sapiens, HCT-116, 24 h, read-out: % Growth inhibition ± SEM HCT116. It counts as cell-based. The method, boiled down:
as §1

The next test has as its system HepG2 liver cancer cells. In words: Anti-proliferative MTT assay. The format is cell-based. The settings on record: Homo sapiens, 24 h, read-out: % Growth inhibition ± SEM HepG2. The method, boiled down:
as §1

The subject of test [4] is WI-38 human lung fibroblast cells. In words: MTT cytotoxicity assay on normal cells. It counts as cell-based. The settings on record: for IC50: Homo sapiens, WI-38, normal lung fibroblasts, MTT, 24 h, n = 3, read-out: IC50 (µM) ± SEM WI-38; for Mean tumour selectivity: S. I. (WI-38/A549 and H441). On the procedure: All chemicals used in this study were analytical or cell-culture grade.
Cytotoxicity was measured using the MTT assay. […] The medium was aspirated and 150 μL DMSO was added to solubilise MTT formazan crystals. The plates were then shaken, and the optical density was determined at 570 nm using an ELISA plate reader (Model 550, Bio-Rad, Hercules, CA). At least three independent experiments were performed.

Another test relates to p-EGFR. In words: Western blotting in A549 cells. The following applies: Western blot, vs untreated control. It counts as cell-based, human. An excerpt: (§2) Figure 3. […] (B) The relative protein expression level of p-EGFR normalised with total EGFR was quantified by the Image J software (C) The relative protein expression level of p-VEGFR-2 normalised with total VEGFR-2. The values are expressed as the mean ± SEM based on three different experiments. ***p < 0.001 indicate a significant difference compared with control.
(§3) The protein extraction and quantification were done as previously described.

Another test relates to p-VEGFR-2. In words: Western blotting in A549 cells. It counts as cell-based, human. The following applies: Western blot, vs untreated control.
From the text: as §2, §3
(In general: A western blot detects proteins with antibodies after separation by electrophoresis.)

Another test relates to A549 cells. In words: Cell cycle analysis by flow cytometry (7AAD). The format is cell-based, human. The following applies: A549, 24 h; untreated controls 6.06% and 5.93%. On the procedure:
Figure 6. […] (A) Representative cell cycle distribution data are shown by flow cytometric analysis upon incubation with 0 (control), 2.5 or 5 μM of 10b or 10d or with 0 (control), 5 or 20 μM of gefitinib for 24 h. (B) Quantification of cell cycle distribution upon 24 h incubation with 10b or 10d.
DNA content was measured using 7-aminoactinmycin D (7AAD) (Biotium, Inc., Hayward, CA) staining and is commonly used for cell cycle phase analysis as previously described. Apoptosis was evaluated using the annexin V/propidium iodide (PI) staining kit (BioLegend, San Diego, CA) according to the manufacturer’s instructions and as previously described.
(In flow cytometry, cells or beads pass a laser one at a time.)

For another test, the system named is H441 lung cancer cells. In words: Anti-proliferative MTT assay. The following applies: Homo sapiens, NCI-H441, 24 h; for inhibition at 10 µM: read-out: % Growth inhibition ± SEM H441; for IC50: read-out: IC50 (µM) ± SEM H441, MTT, 24 h, n = 3.
The next test has as its target SYK (Homo sapiens, UniProt P43405). In words: Kinase selectivity profiling, Z'-LYTE FRET.
The next test addresses ABL1 (Homo sapiens, UniProt P00519). In words: Kinase selectivity profiling, Z'-LYTE FRET.
For the next test, the target named is LCK (Homo sapiens, UniProt P06239). Put plainly: Kinase selectivity profiling, Z'-LYTE FRET.
For another test, the target named is CLK1 (Homo sapiens, UniProt P49759). In words: Kinase selectivity profiling, Z'-LYTE FRET.
A further test addresses ROCK1 (Homo sapiens, UniProt Q13464). Put plainly: Kinase selectivity profiling, Z'-LYTE FRET.
A further test has as its target CDK1 (Homo sapiens, UniProt P06493). In words: Kinase selectivity profiling, Z'-LYTE FRET.

Sequence of ABL1 (P00519 whole entry): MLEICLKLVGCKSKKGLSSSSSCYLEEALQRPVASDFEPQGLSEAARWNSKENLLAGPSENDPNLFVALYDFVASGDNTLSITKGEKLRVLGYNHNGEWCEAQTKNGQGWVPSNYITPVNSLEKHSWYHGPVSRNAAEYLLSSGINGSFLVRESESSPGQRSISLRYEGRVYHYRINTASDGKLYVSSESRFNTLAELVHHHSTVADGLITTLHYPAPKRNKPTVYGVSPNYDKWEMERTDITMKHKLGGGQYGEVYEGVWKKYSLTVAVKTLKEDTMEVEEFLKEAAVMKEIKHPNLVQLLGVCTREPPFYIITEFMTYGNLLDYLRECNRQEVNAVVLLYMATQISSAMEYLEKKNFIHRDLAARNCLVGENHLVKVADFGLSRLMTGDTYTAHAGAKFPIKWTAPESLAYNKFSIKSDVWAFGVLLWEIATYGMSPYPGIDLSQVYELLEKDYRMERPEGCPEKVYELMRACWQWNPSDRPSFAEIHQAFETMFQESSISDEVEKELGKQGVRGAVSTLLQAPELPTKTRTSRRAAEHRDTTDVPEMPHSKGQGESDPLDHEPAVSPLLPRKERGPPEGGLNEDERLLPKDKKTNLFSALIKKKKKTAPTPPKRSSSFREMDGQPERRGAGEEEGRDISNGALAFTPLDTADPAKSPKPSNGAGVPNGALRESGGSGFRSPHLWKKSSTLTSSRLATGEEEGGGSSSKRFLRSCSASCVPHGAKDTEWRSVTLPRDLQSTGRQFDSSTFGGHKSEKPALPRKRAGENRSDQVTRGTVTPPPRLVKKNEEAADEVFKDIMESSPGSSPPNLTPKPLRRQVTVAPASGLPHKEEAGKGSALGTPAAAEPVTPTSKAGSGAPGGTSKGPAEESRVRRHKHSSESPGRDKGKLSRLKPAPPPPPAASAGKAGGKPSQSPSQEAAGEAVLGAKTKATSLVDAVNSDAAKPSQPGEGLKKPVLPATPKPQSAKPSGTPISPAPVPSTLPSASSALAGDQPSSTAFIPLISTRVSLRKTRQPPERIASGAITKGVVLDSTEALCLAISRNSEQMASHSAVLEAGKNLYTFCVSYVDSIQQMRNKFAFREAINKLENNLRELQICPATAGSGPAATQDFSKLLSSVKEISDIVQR
Sequence of EGFR (P00533 25-1210): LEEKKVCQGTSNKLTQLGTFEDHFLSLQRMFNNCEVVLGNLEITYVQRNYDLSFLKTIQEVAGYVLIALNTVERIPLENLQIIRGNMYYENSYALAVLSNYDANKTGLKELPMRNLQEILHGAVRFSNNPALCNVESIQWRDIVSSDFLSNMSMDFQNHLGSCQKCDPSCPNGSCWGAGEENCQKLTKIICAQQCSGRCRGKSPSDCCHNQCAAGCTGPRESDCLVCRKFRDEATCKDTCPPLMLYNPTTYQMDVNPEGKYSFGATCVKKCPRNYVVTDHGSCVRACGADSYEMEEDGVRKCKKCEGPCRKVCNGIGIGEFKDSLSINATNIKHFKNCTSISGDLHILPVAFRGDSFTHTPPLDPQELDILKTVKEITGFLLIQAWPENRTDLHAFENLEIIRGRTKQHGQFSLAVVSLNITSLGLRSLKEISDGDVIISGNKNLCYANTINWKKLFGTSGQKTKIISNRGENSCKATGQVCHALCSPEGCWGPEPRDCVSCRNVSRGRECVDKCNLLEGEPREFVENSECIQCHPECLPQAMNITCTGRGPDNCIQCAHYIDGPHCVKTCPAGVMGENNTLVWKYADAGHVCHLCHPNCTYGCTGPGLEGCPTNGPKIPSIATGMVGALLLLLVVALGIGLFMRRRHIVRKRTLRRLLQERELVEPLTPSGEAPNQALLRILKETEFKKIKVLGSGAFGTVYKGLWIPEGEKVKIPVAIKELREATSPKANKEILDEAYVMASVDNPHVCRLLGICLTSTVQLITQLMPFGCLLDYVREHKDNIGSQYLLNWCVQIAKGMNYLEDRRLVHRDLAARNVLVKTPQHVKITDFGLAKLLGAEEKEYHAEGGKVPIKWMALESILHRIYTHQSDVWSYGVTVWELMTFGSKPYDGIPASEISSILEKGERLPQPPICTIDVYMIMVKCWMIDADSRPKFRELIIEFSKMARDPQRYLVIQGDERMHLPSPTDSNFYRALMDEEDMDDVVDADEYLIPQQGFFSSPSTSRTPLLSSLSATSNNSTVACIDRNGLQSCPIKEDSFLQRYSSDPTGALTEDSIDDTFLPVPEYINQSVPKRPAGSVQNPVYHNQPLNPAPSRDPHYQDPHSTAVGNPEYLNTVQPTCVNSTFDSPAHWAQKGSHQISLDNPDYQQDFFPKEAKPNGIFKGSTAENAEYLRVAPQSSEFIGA
Sequence of CLK1 (P49759 whole entry): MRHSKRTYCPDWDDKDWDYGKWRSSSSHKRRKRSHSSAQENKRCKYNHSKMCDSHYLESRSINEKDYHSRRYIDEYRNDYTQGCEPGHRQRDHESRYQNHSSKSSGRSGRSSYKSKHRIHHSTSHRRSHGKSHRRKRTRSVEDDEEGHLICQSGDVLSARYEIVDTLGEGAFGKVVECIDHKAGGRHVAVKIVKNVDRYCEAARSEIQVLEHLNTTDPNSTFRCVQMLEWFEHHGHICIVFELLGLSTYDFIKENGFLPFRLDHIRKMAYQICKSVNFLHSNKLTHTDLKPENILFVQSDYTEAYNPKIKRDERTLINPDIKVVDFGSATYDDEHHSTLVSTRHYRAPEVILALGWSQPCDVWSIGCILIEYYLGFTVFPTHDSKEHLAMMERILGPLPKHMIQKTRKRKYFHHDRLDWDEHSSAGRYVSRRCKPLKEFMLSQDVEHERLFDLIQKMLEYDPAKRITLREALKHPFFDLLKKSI
Sequence of LCK (P06239 whole entry): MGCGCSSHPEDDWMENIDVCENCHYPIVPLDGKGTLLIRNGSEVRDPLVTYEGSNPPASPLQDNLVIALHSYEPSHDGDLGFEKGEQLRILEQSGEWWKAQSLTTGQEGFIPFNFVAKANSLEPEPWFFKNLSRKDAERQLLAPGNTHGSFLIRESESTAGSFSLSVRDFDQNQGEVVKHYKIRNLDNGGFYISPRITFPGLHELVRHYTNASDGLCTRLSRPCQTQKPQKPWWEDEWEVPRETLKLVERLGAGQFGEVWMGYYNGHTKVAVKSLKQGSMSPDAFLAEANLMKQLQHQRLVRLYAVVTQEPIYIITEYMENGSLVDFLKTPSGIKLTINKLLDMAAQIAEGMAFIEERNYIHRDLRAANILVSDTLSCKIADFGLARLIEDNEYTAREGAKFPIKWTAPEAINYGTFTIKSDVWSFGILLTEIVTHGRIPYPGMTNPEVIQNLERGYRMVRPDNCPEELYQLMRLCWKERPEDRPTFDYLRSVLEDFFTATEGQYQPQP
Sequence of ROCK1 (Q13464 whole entry): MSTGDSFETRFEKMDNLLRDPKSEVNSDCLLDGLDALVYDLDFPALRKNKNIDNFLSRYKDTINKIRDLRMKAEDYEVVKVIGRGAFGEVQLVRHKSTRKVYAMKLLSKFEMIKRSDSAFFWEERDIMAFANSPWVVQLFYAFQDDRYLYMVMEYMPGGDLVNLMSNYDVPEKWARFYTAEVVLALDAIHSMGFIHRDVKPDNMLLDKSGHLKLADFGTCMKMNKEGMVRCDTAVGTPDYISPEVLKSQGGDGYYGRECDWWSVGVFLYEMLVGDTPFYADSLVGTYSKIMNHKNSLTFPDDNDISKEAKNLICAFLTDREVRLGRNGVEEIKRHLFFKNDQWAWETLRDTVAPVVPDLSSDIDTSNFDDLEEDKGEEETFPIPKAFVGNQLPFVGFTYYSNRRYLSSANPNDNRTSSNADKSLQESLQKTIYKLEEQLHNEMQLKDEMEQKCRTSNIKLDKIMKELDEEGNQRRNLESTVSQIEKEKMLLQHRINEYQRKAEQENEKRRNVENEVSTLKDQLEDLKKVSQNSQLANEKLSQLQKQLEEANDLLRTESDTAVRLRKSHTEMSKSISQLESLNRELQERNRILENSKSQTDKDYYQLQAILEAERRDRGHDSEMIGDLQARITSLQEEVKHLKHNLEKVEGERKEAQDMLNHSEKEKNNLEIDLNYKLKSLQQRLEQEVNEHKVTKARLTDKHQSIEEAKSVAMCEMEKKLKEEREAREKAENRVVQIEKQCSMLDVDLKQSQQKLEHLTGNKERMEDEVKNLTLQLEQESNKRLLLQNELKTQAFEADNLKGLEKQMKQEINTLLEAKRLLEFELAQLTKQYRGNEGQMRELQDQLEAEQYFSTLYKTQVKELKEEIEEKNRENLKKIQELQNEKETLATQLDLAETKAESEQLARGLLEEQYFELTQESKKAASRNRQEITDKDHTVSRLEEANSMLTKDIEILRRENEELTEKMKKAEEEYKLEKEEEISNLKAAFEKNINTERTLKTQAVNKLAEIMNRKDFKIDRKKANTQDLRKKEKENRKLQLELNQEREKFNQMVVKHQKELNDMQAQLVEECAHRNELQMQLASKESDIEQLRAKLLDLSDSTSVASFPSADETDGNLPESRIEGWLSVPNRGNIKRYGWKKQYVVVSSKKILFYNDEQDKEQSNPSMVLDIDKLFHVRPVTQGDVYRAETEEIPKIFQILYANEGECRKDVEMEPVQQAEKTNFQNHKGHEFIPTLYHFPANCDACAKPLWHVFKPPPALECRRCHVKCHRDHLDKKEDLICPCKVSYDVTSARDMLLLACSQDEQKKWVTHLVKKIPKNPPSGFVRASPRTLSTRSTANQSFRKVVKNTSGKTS

With `CCOC(=O)c1sc(N2N=C(c3ccc(Cl)cc3Cl)CC2c2ccc(OC)cc2)nc1C` (stereo not drawn) [Compound 10b, Ethyl-2-(3-(2,4-dichlorophenyl)-5-(4-methoxyphenyl)-4,5-dihydro-1H-pyrazol-1-yl)-4-methylthiazole-5-carboxylate], the IC50 (in general, the concentration at which inhibition is half-maximal) on EGFR is 40.7 ± 1 nM; in [4], 72.4 ± 7.2 µM; in the test with H441 lung cancer cells, 4.8 ± 0.1 µM; against SYK, 1120 ± 22 nM; at ABL1 it was greater than 2000 nM; on LCK it was greater than 2000 nM. Moreover, the IC50 was 1070 ± 54 nM against CLK1, greater than 2000 nM on ROCK1 and 310 ± 12 nM against CDK1. The inhibition (usually the change of the read-out against control, counted positive when it falls) at 10 µM in test [1] came to 47.2 ± 4.9%; in test [2], 41.5 ± 2.1%; in test [3], 37.7 ± 3.9%; in the test on HepG2 liver cancer cells, 50.6 ± 2.2%; in the test on H441 lung cancer cells, 79.1 ± 2.6%. Also, the Mean tumour selectivity in test [4] is 16.1. The “protein expression level of p-EGFR” value in the test on p-EGFR is recorded as “significantly downregulated”. Also, in the test on p-VEGFR-2, the “protein expression level of p-VEGFR-2” value is “significantly downregulated”. Moreover, the “cells at G2/M phase” value with A549 cells was determined as 29.2%.

For `COc1ccc(C2CC(c3ccc(Cl)cc3Cl)=NN2c2nc(C)c(C(=O)Nc3ccccc3)s2)cc1OC` (stereo not drawn) [Compound 10d, 2-(3-(2,4-Dichlorophenyl)-5-(3,4-dimethoxyphenyl)-4,5-dihydro-1H-pyrazol-1-yl)-4-methyl-N-phenylthiazole-5-carboxamide], the IC50 at EGFR was 32.5 ± 2.2 nM; in [4], 51.4 ± 3.5 µM; in the test on H441 lung cancer cells, 3.8 ± 0.5 µM; at SYK it was 870 ± 31 nM; against ABL1 it was greater than 2000 nM; at LCK, greater than 2000 nM. Also, the IC50 was 798 ± 19 nM against CLK1, greater than 2000 nM against ROCK1 and 245 ± 7 nM against CDK1. The inhibition at 10 µM in [1] was 40.1 ± 2%; in test [2], 54.1 ± 2.8%; in test [3], 56.5 ± 2%; in the test on HepG2 liver cancer cells, 65.5 ± 3.9%; with H441 lung cancer cells, 89.2 ± 3.9%. Further, in test [4], the Mean tumour selectivity came out at 15.3. The “protein expression level of p-EGFR” value with p-EGFR is given as “significantly downregulated”. For the same compound, the “protein expression level of p-VEGFR-2” value in the test with p-VEGFR-2 was “significantly downregulated”. The “cells at G2/M phase” value in the test on A549 cells came out at 33.92%.
